pIC50: −log10 of the molar value. Like-named read-outs stand apart in the source and are kept apart here.
Tests used:
[1] = test system: human GI microtissues (EpiIntestinal-FT, ileal); experiment: Human GI microtissue barrier function assay; assay type: cell-based; details: for TEER (IC15): human microtissue, blinded, unit not given; for IC15: Homo sapiens
[2] = test system: human GI microtissue; experiment: GI microtissue TEER response kinetics; assay type: cell-based
[3] = test system: human GI microtissue; experiment: MTT viability assay; assay type: cell-based; details: Caco-2, read-out: MTT IC50
[4] = test system: Caco-2 cells; details: for Caco-2 TEER IC15: Caco-2 transwell, top conc. 100 μM, unit inferred; for Caco-2 TEER IC15/Cmax: human
[5] = 96 h, read-out: Microtissue Exp 1 TEER IC15
[6] = read-out: Microtissue Exp 2 TEER IC15

SMILES	pIC50 [3]	Caco-2 TEER IC15 [4] [µM]	IC15 [1, 5] [µM]	IC15 [1, 6] [µM]	also measured
CSCC[C@H](NC(=O)c1cc(NC[C@@H]2C[C@H](SC(=O)c3cccnc3)CN2)ccc1CCc1ccc(F)cc1)C(=O)OC(C)C [AZD3409]	–	–	–	–	TEER (IC15) [1]: 3.0E-06; TEER Diarrhea-Genic Prediction ([1]; scored with TEER IC15/Cmax ratio < 80): Active
CNC(=O)CN1CCC(Oc2cc3c(Nc4cccc(Cl)c4F)ncnc3cc2OC)CC1 [AZD8931]	–	–	–	–	TEER recovery after washout ([2]; 100 μM for 3 days, then washout (first cycle)): quickly recovered TEER after washout; Effect on TEER during 3-day treatment period ([2]; 100 μM, 3 days continuous, TEER measured daily): pronounced decrease in TEER; TEER recovery after second treatment cycle ([2]; 100 μM, second treatment cycle): slower; TEER Diarrhea-Genic Prediction [1]: Active; TEER (IC15) [1]: 3.0E-9
CN(C)C/C=C/C(=O)Nc1cc2c(Nc3ccc(F)c(Cl)c3)ncnc2cc1O[C@H]1CCOC1 [Afatinib]	4.52	9	6	8.5	–
COc1cc2nc(N(C)CCCNC(=O)C3CCCO3)nc(N)c2cc1OC (stereo not drawn) [Alfuzosin]	< 4.00	–	> 100	> 100	Caco-2 TEER IC15/Cmax [4]: 3132
CCCCc1oc2ccccc2c1C(=O)c1cc(I)c(OCCN(CC)CC)c(I)c1 [Amiodarone]	–	–	40	–	–
CCOC(=O)C1=C(COCCN)NC(C)=C(C(=O)OC)C1c1ccccc1Cl (stereo not drawn) [Amlodipine]	4.35	30	15	10	–
CNC(=O)c1ccccc1Sc1ccc2c(/C=C/c3ccccn3)n[nH]c2c1 [Axitinib]	–	–	1	> 100	–
CC(C)C[C@H](NC(=O)[C@H](Cc1ccccc1)NC(=O)c1cnccn1)B(O)O [Bortezomib]	< 4.00	1	1	1	–
CCCCCOC(=O)Nc1nc(=O)n([C@@H]2O[C@H](C)[C@@H](O)[C@H]2O)cc1F [Capecitabine]	< 4.00	> 100	1	1	–
COc1cc2c(c(OC)c1OC)-c1ccc(OC)c(=O)cc1[C@@H](NC(C)=O)CC2 [Colchicine]	–	–	> 100	1	–
C[C@@H](Oc1cc(-c2cnn(C3CCNCC3)c2)cnc1N)c1c(Cl)ccc(F)c1Cl [Crizotinib]	4.66	8	9.5	9.5	–
C[C@@H]1C[C@H]2[C@@H]3CCC4=CC(=O)C=C[C@]4(C)[C@@]3(F)[C@@H](O)C[C@]2(C)[C@@]1(O)C(=O)CO [Dexamethasone]	< 4.00	> 100	> 100	> 100	–
Cc1cccc([C@H](C)c2cnc[nH]2)c1C [Dexmedetomidine]	< 4.00	–	40	40	Caco-2 TEER IC15/Cmax [4]: 21138
CC(=O)Oc1cccc2c1C(=O)c1c(OC(C)=O)cc(C(=O)O)cc1C2=O [Diacerein]	4.19	> 100	40	40	–
CC(=O)O[C@@]12CO[C@@H]1C[C@H](O)[C@@]1(C)C(=O)[C@H](O)C3=C(C)[C@@H](OC(=O)[C@H](O)[C@@H](NC(=O)OC(C)(C)C)c4ccccc4)C[C@@](O)([C@@H](OC(=O)c4ccccc4)[C@H]21)C3(C)C [Docetaxel]	4.19	> 100	40	40	–
CN(CCOc1ccc(NS(C)(=O)=O)cc1)CCc1ccc(NS(C)(=O)=O)cc1 [Dofetilide]	< 4.00	> 100	> 100	> 100	–

SMILES	pIC50 [3]	Caco-2 TEER IC15 [4] [µM]	IC15 [1, 5] [µM]	IC15 [1, 6] [µM]	also measured
CC(C)(C)NC(=O)[C@H]1CC[C@H]2[C@@H]3CC[C@H]4NC(=O)C=C[C@]4(C)[C@H]3CC[C@]12C [Finasteride]	< 4.00	> 100	80	> 100	–
O=C(NCC1CCCCN1)c1cc(OCC(F)(F)F)ccc1OCC(F)(F)F (stereo not drawn) [Flecainide]	< 4.00	> 100	80	> 100	–
CO[C@H]1O[C@H](COS(=O)(=O)O)[C@@H](O[C@@H]2O[C@@H](C(=O)O)[C@@H](O[C@H]3O[C@H](COS(=O)(=O)O)[C@@H](O[C@@H]4O[C@H](C(=O)O)[C@@H](O[C@H]5O[C@H](COS(=O)(=O)O)[C@@H](O)[C@H](O)[C@H]5NS(=O)(=O)O)[C@H](O)[C@H]4O)[C@H](OS(=O)(=O)O)[C@H]3NS(=O)(=O)O)[C@H](O)[C@H]2OS(=O)(=O)O)[C@H](O)[C@H]1NS(=O)(=O)O [Fondaparinux]	< 4.00	> 100	> 100	> 100	–
O=C(CCCN1CCC(O)(c2ccc(Cl)cc2)CC1)c1ccc(F)cc1 [Haloperidol]	–	30	22	8	–
CC(=O)[C@]1(O)Cc2c(O)c3c(c(O)c2[C@@H](O[C@H]2C[C@H](N)[C@H](O)[C@H](C)O2)C1)C(=O)c1ccccc1C3=O [Idarubicin]	5.00	8	4.3	2.5	–
Cc1ccc(NC(=O)c2ccc(CN3CCN(C)CC3)cc2)cc1Nc1nccc(-c2cccnc2)n1 [Imatinib]	–	–	7	8	–
CC(C)NCC(O)c1ccc(O)c(O)c1 (stereo not drawn) [Isoprenaline]	< 4.00	> 100	> 100	> 100	–
CNCCCC12CCC(c3ccccc31)c1ccccc12 [Maprotiline]	–	–	6	9	–
COc1c2occc2cc2ccc(=O)oc12 [Methoxsalen]	3.82	–	150	150	–
CC(C)(C)NCC(O)COc1cccc2c1CC(O)C(O)C2 (stereo not drawn) [Nadolol]	< 4.00	> 100	> 100	> 100	–
CCCCC[C@H](O)/C=C/[C@@H]1[C@H]2C/C(=C/CCCC(=O)O)O[C@H]2C[C@H]1O [Prostacyclin]	< 4.00	> 100	> 100	> 100	–
C=C[C@H]1C[N@@]2CC[C@H]1C[C@@H]2[C@@H](O)c1ccnc2ccc(OC)cc12 [Quinidine]	< 4.00	–	30	30	–
CNC(=O)c1cc(Oc2ccc(NC(=O)Nc3ccc(Cl)c(C(F)(F)F)c3)cc2)ccn1 [Sorafenib]	4.19	15	7.9	7.9	–
C=CC[C@@H]1/C=C(\C)C[C@H](C)C[C@H](OC)[C@H]2O[C@@](O)(C(=O)C(=O)N3CCCC[C@H]3C(=O)O[C@H](/C(C)=C/[C@@H]3CC[C@@H](O)[C@H](OC)C3)[C@H](C)[C@@H](O)CC1=O)[C@H](C)C[C@@H]2OC [Tacrolimus]	4.26	30	30	40	–
C[C@]12C=CC(=O)C=C1CC[C@H]1[C@@H]3C[C@@H](O)[C@](O)(C(=O)CO)[C@@]3(C)C[C@H](O)[C@@]12F [Triamcinolone]	< 4.00	> 100	> 100	> 100	–
COc1ccc(CCN(C)CCCC(C#N)(c2ccc(OC)c(OC)c2)C(C)C)cc1OC (stereo not drawn) [Verapamil]	–	–	40	45	–

Source: paper PMC6390652 (Toxicological Sciences, 2018)
